Publication PMC12338828, “Evaluation of organotin (IV) dithiocarbamate compounds as potential anti-leukemia agents towards CCRF-CEM (CCL-119) cell line: Cytotoxic, apoptotic, cell cycle and genotoxic study” (PLOS One, 2025)
Several values for one entry are separate records, joined by “and”; a condition that tells them apart may be missing. Identical values can stand only once.

Legend:
[1] = system: WIL2-NS cells; parameters: method as in Rasli et al. (2023); conditions: non-cancerous cells; 24 hours of exposure; graph referred to earlier paper; ref Rasli et al. (2023); cited from earlier work
[2] = system: CCL-119 cells; experiment: Cell cycle analysis (PI/RNase staining); assay type: cell-based; conditions: for cells in G0/G1 phase / cells in G2/M phase / cells in S phase: 24 hours at IC50, single replicates n1-n3; for Phases of Cell Cycle Arrest: 24 hours at IC50 concentrations
Procedure: The cells were cultured and seeded in a 6-well plate at 1 x 10^6 cells/mL. VCR was used as a positive control, and untreated cells were used as a negative control in this assay. The concentration of the compounds and VCR was followed by IC50 values that were taken from the MTT assay.
After 24 hours of incubation, all cells in the plate were transferred to the Eppendorf tube and centrifuged for 5 minutes at 4°C at 1500 rpm. After centrifuging, the supernatant was removed, and cells were washed with 500 µL cold PBS three times. The pellet was fixed by using 70% ethanol overnight at −20°C. Next, the samples were stained with 500 µL of PI/RNase staining buffer and incubated for 15 minutes. The samples were then transferred into Falcon tubes. The data was recorded using a flow cytometer and analyzed using ModFit LT software.

[3] = system: CCL-119 cells; experiment: Mode of cell death, Annexin V-FITC/PI staining (flow cytometry); assay type: cell-based; conditions: for Early Apoptosis (Q4) / Late Apoptosis (Q2) / Necrosis (Q1) / Viable (Q3): 24 hours at IC50, single replicates n1-n3
Procedure: The mode of cell death can be observed through the Annexin V-FITC/PI staining (BD, USA). The result of this test is either apoptosis or necrosis. […] VCR was used as a positive control, while cells without any treatment were used as a negative control. Then, the plate was incubated for 24 hours. After the incubation, the cell suspension in each well was collected into different Eppendorf tubes. The tubes were then centrifuged for 5 minutes at 1500 rpm at 4°C. After the centrifuge, the supernatant in the tubes was removed, and the cell pellets were washed twice with cold PBS. Then, centrifuge the tubes again and remove the supernatant. Next, 100 µL of Annexin V binding buffer was resuspended in each tube, and 5 µL Annexin V-FITC was pipetted into the tube to stain the cells for 15 minutes at room temperature, dark. After that, 5 µL of propidium iodide was piped into the tube for 5 minutes. The staining process is done in dark conditions. Lastly, the sample was transferred into the Falcon tube, and each tube was resuspended in 400 µL of Annexin V binding buffer. The sample was analyzed using a flow cytometer (BD FACS Canto II) within one hour.

[4] = system: CCL-119 cells; experiment: MTT cytotoxicity assay; conditions: for cell viability at 0.31 µM / cell viability at 0.63 µM / cell viability at 1.25 µM / cell viability at 2.50 µM / cell viability at 5.00 µM / Selectivity Index (SI): 24 hours; for cell viability at 0.31 µM / cell viability at 0.63 µM / cell viability at 1.25 µM / cell viability at 2.50 µM / cell viability at 5.00 µM: single replicates n1-n3, untreated = 100.00; for cell viability at 2.50 µM: 2.5 µM; for Selectivity Index (SI): IC50 WIL2-NS / IC50 CCL-119
Procedure: The T-acute lymphoblastic leukemia cell line, CCRF-CEM (CCL-119™), and a non-cancerous cell, WIL2-NS (CRL-8155™), were purchased from the American Type Culture Collection (ATCC). Both are suspension types of cells and were cultured in Roswell Park Memorial Institute Medium 1640 (RPMI-1640) (Sigma-Aldrich), supplemented with 10% Fetal Bovine Serum (FBS) (Capricorn Scientific) and 1% penicillin-streptomycin (Nacalai Tesque) to obtain the complete growth medium and were incubated at 37 °C with a 5% CO2 incubator. Both suspension cells are used for tests when the cells’ passage becomes passage 3–10 (maximum).
All stock solutions of the organotin (IV) dithiocarbamate compounds were prepared at 10 mM and dissolved in dimethyl sulphoxide (DMSO) (ChemAR®). The stock solutions were stored at 4°C; fresh dilutions were made by adding the RPMI-1640 medium before the experiment. The dilution is carried out using the serial dilution method to obtain the desired concentrations, which are 5 µM, 2.5 µM, 1.25 µM, 0.63 µM, 0.32 µM, and 0.16 µM in this study. Vincristine (VCR) is used as a positive control in this study.
Both CCL-119 and WIL2-NS cells were seeded in a 96-well plate at a final concentration of 5 x 10^5 cells/well and treated with 5 µM, 2.5 µM, 1.25 µM, 0.63 µM, 0.32 µM, and 0.16 µM of organotin (IV) dithiocarbamate compound for 24 hours at 37°C with 5% CO2. VCR was used as a positive control in this study, while cells without treatment were used as a negative control. After 24 hours of exposure, 20 µL of MTT (Merck) salt solution was added into each well and incubated for another 4 hours. The plate was wrapped with aluminium foil as MTT salt is light sensitive. After 4 hours, the purple crystal formazan was formed. All the medium was removed carefully from each well, and 200 µL DMSO was added to each well to dissolve the purple formazan crystal. Then, the plates were incubated for an additional 15 minutes. The results were analyzed and recorded using an ELISA microplate reader at 570 nm. The data was then plotted into a graph, and IC50 values were determined.
The selectivity index (SI) is determined by dividing the cytotoxic activity (IC50 value) of each compound on a non-cancerous cell line (WIL2-NS) by the leukemia cell line (CCL-119). […] WIL2- NS cell lines were selected as the comparator because it is a non-cancerous human B lymphoblast cell line, which is like CCL-119 (T-lymphoblastic leukemia), derived from lymphocytes. This choice ensures that comparisons are made between biologically similar cell types, minimizing variability that could arise from differences in tissue origin or lineage.

[5] = system: CCL-119 cells; experiment: Alkaline comet assay; assay type: cell-based
Procedure: VCR was used as a positive control, and untreated cells were used as a negative control in this assay. The cells were incubated for 1 hour. After incubation, cells in each well were transferred to the Eppendorf tube to centrifuge for 5 minutes at 4°C by using a refrigerated microcentrifuge. The supernatant was removed, and the samples were washed with 1 mL of cold PBS. This process was repeated 3 times. After completion of the process, the supernatant was removed, and the pellet was left for a while on top of the ice while preparing the slide.
About 140 µL of normal melting agar (NMA) is pipetted on top of the fully frosted slide, and a cover slip is put on the agar for 5 minutes or until the agar fully solidifies. After that, the cover slip was removed, and 80 µL of low melting agar (LMA) was added to an Eppendorf tube containing the pellet of cells. The suspension was then transferred into a frosted slide with NMA agar. The cover slip was then put back on top of the frosted slide for 10 minutes or until dry. Next, the slide was transferred into a Coplin jar that contained lysis buffer solution and Triton X-100. The slides were then incubated at 4°C overnight. The slides were arranged on an electrophoresis tank filled with electrophoresis buffer for 20 minutes. Electrophoresis is done for another 20 minutes at 25 V with 300 mA. The slides were washed with a neutralization buffer solution 3 times at a 5-minute time interval. Finally, 30 µL of ethidium bromide (50 µg/mL) was added, and the slide was observed by using fluorescence microscopy (OLYMPUS BX51TR). CometScore software is used to analyze the DNA damage of the cells. The comet assay was performed under alkaline conditions (pH > 13) to detect both single- and double-strand DNA breaks.

[6] = 1 hour of exposure, single replicates n1-n3

Row | SMILES | IC50 [1] | cells in G0/G1 phase [2] | cells in G2/M phase [2] | cells in S phase [2] | Early Apoptosis (Q4) [3] | Late Apoptosis (Q2) [3] | Necrosis (Q1) [3] | Viable (Q3) [3] | cell viability at 0.31 µM [4] | cell viability at 0.63 µM [4] | cell viability at 1.25 µM [4] | cell viability at 2.50 µM [4] | cell viability at 5.00 µM [4] | Selectivity Index (SI) [4] | Tail moment ([5]; 1 hour of exposure, mean ± SEM) | percentage of DNA intensity in the tail ([5]; 1 hour of exposure, mean ± SEM) | % DNA intensity [5, 6] | Tail moment [5, 6] | Phases of Cell Cycle Arrest [2] | further results
1 | CCN(CC)C(=S)[S][Sn]([c]1ccccc1)([c]1ccccc1)[c]1ccccc1 [ODTC 5, triphenyltin (IV) diethyl dithiocarbamate] | 0.79 ± 0.05 µM | 64.02% and 86.49% and 54.56% | 30.58% and 13.51% and 45.44% | 5.4% and 0% | 10.9% and 47.3% and 16.6% | 6.4% and 17.1% and 18.5% | 12.9% and 0.1% | 69.8% and 35.6% and 64.8% | 37.70% and 42.75% and 36.81% | 39.38% and 30.79% and 37.35% | 35.19% and 39.06% and 29.63% | 37.67% and 28.99% and 27.66% | 16.16% and 17.11% and 21.93% | 4.16 | 12.61 ± 1.56 A.U | 11.59 ± 1.18% | 13.8528% and 11.0312% and 9.872% | 15.0222 A.U and 13.1179 A.U and 9.676 A.U |  | population of cells undergoing necrosis ([3]; 24 hours, treated at IC50): 4.37%
2 | CC(C)N(C(=S)[S][Sn]([S]C(=S)N(C(C)C)C(C)C)([c]1ccccc1)[c]1ccccc1)C(C)C [ODTC 1, diphenyltin (IV) diisopropyl dithiocarbamate] | 1.39 ± 0.46 µM | 44.44% and 52.78% and 46.11% | 0.17% and 1.28% and 8.00% | 55.38% and 45.94% and 45.89% | 45.2% and 37.2% and 40.2% | 34.7% and 29.3% | 0.2% and 1% and 0.6% | 28.4% and 29.5% and 29.9% | 68.12% and 70.47% and 62.95% | 46.30% and 50.11% and 43.95% | 30.25% and 39.66% and 27.67% | 11.95% and 23.57% and 13.38% | 8.78% and 22.56% and 11.96% | 2.48 | 68.58 ± 3.31 A.U | 27.50 ± 2.36% | 31.5757% and 23.3927% and 27.534% | 74.8179 A.U and 67.3969 A.U and 63.5391 A.U | S phase | cell death through apoptosis (population of cells) ([3]; 24 hours, treated at IC50, early + late apoptosis): 77.6%; IC50 ([4]; read-out: IC50 (µM) CCL-119, 24 hours of exposure, mean ± SEM, n = 3): 0.56 ± 0.04 µM; DNA damage / genotoxic effect (in words) [5]: highest genotoxic effects; DNA damage class ([5]; 1 hour of exposure): class 3
3 | CC(C)N(C(=S)[S][Sn]([c]1ccccc1)([c]1ccccc1)[c]1ccccc1)C(C)C [ODTC 3, triphenyltin (IV) diisopropyl dithiocarbamate] | 0.75 ± 0.07 µM | 9.54% and 24.65% and 21.14% | 90.46% and 75.18% and 78.7% | 0% and 0.17% and 0.16% | 35.9% and 47.6% and 15.9% | 10.8% and 9% and 12% | 0.1% and 0% and 1.5% | 53.2% and 43.4% and 70.6% | 47.07% and 58.65% and 40.35% | 40.17% and 50.04% and 42.00% | 42.27% and 42.45% and 31.66% | 35.57% and 24.06% and 25.57% | 27.21% and 27.19% and 34.26% | 3.13 | 22.25 ± 0.93 A.U | 10.79 ± 0.72% | 9.366% and 11.3439% and 11.6624% | 20.8823 A.U and 21.8477 A.U and 24.0274 A.U |  | 
4 | C=CCN(CC=C)C(=S)[S][Sn]([c]1ccccc1)([c]1ccccc1)[c]1ccccc1 [ODTC 4, triphenyltin (IV) diallyl dithiocarbamate] | 0.67 ± 0.14 µM | 45.09% and 46.03% and 29.64% | 8.07% and 7.1% and 0% | 46.84% and 46.87% and 70.36% | 41.4% and 46.5% and 27% | 15.2% and 19.2% and 9.9% | 0.2% and 0.1% | 43.2% and 34.2% and 63% | 30.40% and 42.75% and 41.34% | 24.51% and 37.25% and 30.23% | 26.67% and 22.56% and 24.61% | 25.39% and 26.40% and 25.55% | 20.16% and 12.33% and 18.27% | 4.19 | 25.83 ± 2.60 A.U | 14.24 ± 0.94% | 12.9244% and 13.7623% and 16.0541% | 29.2637 A.U and 27.4848 A.U and 20.7304 A.U | S phase | 
